Test results taken from US4921984A, “Novel platinum complexes” (Nippon Kayaku Kabushiki Kaisha, priority 1985, dated 1990).

What was measured:
[1] = tested on: mouse leukemia L1210 cells; experiment: Growth inhibition test on cultured mouse leukemia L1210 cells; assay type: cell-based; settings: RPMI 1640 with 10% fetal calf serum
Experimental: Mouse leukemia L1210 cells were cultured in a RPMI 1640 medium containing 10% of fetal calf serum.

mouse leukemia L1210 = experiment: Antitumor activity test on mouse leukemia L1210 in vivo; settings: for max (T/C): L1210, average survival time treated/control ×100, i.p. once a day for 5 days; for Opt. dose: L1210, dose giving max (T/C); for Opt. dose / LD50: i.p. once a day for 5 days; for LD50: L1210-bearing CDF1 mice
Experimental: Mice of compound-non-treated group (control group) were administered with physiological saline solution in the same manner. The average survival times of the compound-treated group and the control group (abbreviated as T and C, respectively) were measured and T/C percentage (T/C×100) was calculated from the following equation. [formula]
In Table 4, max (T/C) means the maximum value of T/C and optimum dose (opt. dose) means an administration amount giving the max namely, an optimum administration amount.

Structure (SMILES) | IC50 [1] [µg/mL] | max (T/C) (mouse leukemia L1210) [%] | Opt. dose (mouse leukemia L1210) [mg/kg] | LD50 (mouse leukemia L1210) [mg/kg] | Solubility in water [µg/mL] | Solubility in physiological saline solution [mg/ml]
CCC1CC[NH2+][Pt-2]2([NH2+]C1)[O]C(=O)C(C)(C)C(=O)[O]2 (racemic) [Compound No. 33, cis-Dimethylmalonato-2-ethyl-1,4-butanediamine platinum] | 0.23 | – | – | – | – | –
CCC1C(=O)[O][Pt-2]2([NH2+]CCCC(C)[NH2+]2)[O]C1=O (racemic) [Compound No. 9, cis-Ethylmalonato-1-methyl-1,4-butanediamine platinum] | 2.40 | 222 | 64 | 96.0 | > 10000 | –
CC1CC[NH2+][Pt-2]([Cl])([Cl])[NH2+]C1 (racemic) [Compound No. 13, cis-Dichloro-2-methyl-1,4-butanediamine platinum] | 0.10 | 187 | 2 | 4.2 | – | > 2
O=C1[O][Pt-2]2([NH2+]CCCC[NH2+]2)[O]C(=O)C12CCOCC2 [Compound No. 3, cis-4-Oxacyclohexane-1,1-dicarboxylato-1,4-butanediamine platinum] | 0.65 | 132 | 8 | 8.4 | > 10000 | –
CC1(C)CC[NH2+][Pt-2]2([NH2+]C1)[O]C(=O)C1(CCOCC1)C(=O)[O]2 [Compound No. 23, cis-4-Oxacyclohexane-1,1-dicarboxylato-2,2-dimethyl-1,4-butanediamine platinum] | 0.44 | 159 | 32 | – | > 3000 | –
CC1CC[NH2+][Pt-2]2([NH2+]C1)[O]C(=O)CC(=O)[O]2 (racemic) [Compound No. 14, cis-Malonato-2-methyl-1,4-butanediamine platinum] | 0.74 | 346 | 32 | – | – | –
CCC1C(=O)[O][Pt-2]2([NH2+]CCC(C)C[NH2+]2)[O]C1=O (racemic) [Compound No. 18, cis-Ethylmalonato-2-methyl-1,4-butanediamine platinum] | 0.84 | 264 | 16 | 24.0 | > 10000 | –
CCC1CCC[NH2+][Pt-2]([Cl])([Cl])[NH2+]1 (racemic) [Compound No. 10, cis-Dichloro-1-ethyl-1,4-butanediamine platinum] | 0.35 | 210 | 4 | 6.0 | – | > 2
CC1(C)CC[NH2+][Pt-2]2([NH2+]C1)[O]C(=O)C(=O)[O]2 [Compound No. 20, cis-Oxalato-2,2-dimethyl-1,4-butanediamine platinum] | 0.37 | 272 | 8 | – | – | –
CC1(C)CC[NH2+][Pt-2]2([NH2+]C1)[O]C(=O)C(C)(C)C(=O)[O]2 [Compound No. 24, cis-Dimethylmalonato-2,2-dimethyl-1,4-butanediamine platinum] | 0.78 | 253 | 64 | – | – | –
CCC(N)CCCN.O=C([O-])C1(C(=O)[O-])CCOCC1.[Pt+2] [Compound No. 12, cis-4-Oxacyclohexane-1,1-dicarboxylato-1-ethyl-1,4-butanediamine platinum] | 1.05 | 181 | 64 | – | – | –
CC(C)(CN)CCN.O=C([O-])C1(C(=O)[O-])CCC1.[Pt+2] [Compound No. 22, cis-Cyclobutane-1,1-dicarboxylato-2,2-dimethyl-1,4-butanediamine platinum] | 2.20 | 320 | 128 | – | > 3000 | –
CC(N)CCCN.O=C([O-])C1(C(=O)[O-])CCC1.[Pt+2] [Compound No. 7, cis-Cyclobutane-1,1-dicarboxylato-1-methyl-1,4-butanediamine platinum] | 2.80 | 176 | 64 | – | – | –
CCC1CC[NH2+][Pt-2]2([NH2+]C1)[O]C(=O)C(=O)[O]2 (racemic) [Compound No. 30, cis-Oxalato-2-ethyl-1,4-butanediamine platinum] | 0.06 | 253 | 8 | – | – | –
[Cl][Pt-2]1([Cl])[NH2+]CCCC[NH2+]1 [Compound No. 1, cis-Dichloro-1,4-butanediamine platinum] | 0.33 | 203 | 2 | 4.8 | – | > 2
CC1CC[NH2+][Pt-2]2([NH2+]C1)[O]C(=O)C1(CCOCC1)C(=O)[O]2 (racemic) [Compound No. 16, cis-4-Oxacyclohexane-1,1-dicarboxylato-2-methyl-1,4-butanediamine platinum] | 0.43 | 167 | 8 | 12.0 | > 15000 | –

Structure (SMILES) | IC50 [1] [µg/mL] | max (T/C) (mouse leukemia L1210) [%] | Opt. dose (mouse leukemia L1210) [mg/kg] | LD50 (mouse leukemia L1210) [mg/kg] | Solubility in water [µg/mL] | Solubility in physiological saline solution [mg/ml]
CC1CCC[NH2+][Pt-2]2([NH2+]1)[O]C(=O)C(C)(C)C(=O)[O]2 (racemic) [Compound No. 8, cis-Dimethylmalonato-1-methyl-1,4-butanediamine platinum] | 0.90 | 189 | 64 | – | – | –
O=C1[O][Pt-2]2([NH2+]CCCC[NH2+]2)[O]C(=O)C12CCC2 [Compound No. 2, cis-Cyclobutane-1,1-dicarboxylato-1,4-butanediamine Platinum] | 0.88 | 182 | 32 | 48.0 | – | –
CC1(C)CCC[NH2+][Pt-2]2([NH2+]1)[O]C(=O)C1(CCC1)C(=O)[O]2 [Compound No. 27, cis-Cyclobutane-1,1-dicarboxylato-1,1-dimethyl-1,4-butanediamine platinum] | – | – | – | – | > 10000 | –
CC1(C)CCC[NH2+][Pt-2]([Cl])([Cl])[NH2+]1 [Compound No. 25, cis-Dichloro-1,1-dimethyl-1,4-butanediamine platinum] | 0.25 | 150 | 2 | 3.0 | – | > 2
CC(N)CCCN.O=C([O-])CC(=O)[O-].[Pt+2] (stereo not drawn) [Compound No. 6, cis-Malonato-1-methyl-1,4-butanediamine platinum] | 0.76 | 359 | 32 | – | – | –
CC1CC[NH2+][Pt-2]2([NH2+]C1)[O]C(=O)C(C)(C)C(=O)[O]2 (racemic) [Compound No. 17, cis-Dimethylmalonato-2-methyl-1,4-butanediamine platinum] | 0.50 | 238 | 32 | – | – | –
CC1(C)CC[NH2+][Pt-2]2([NH2+]C1)[O]C(=O)CC(=O)[O]2 [Compound No. 21, cis-Malonato-2,2-dimethyl-1,4-butanediamine platinum] | 0.72 | 301 | 32 | – | – | –
CCC(N)CCCN.O=C([O-])C1(C(=O)[O-])CCC1.[Pt+2] [Compound No. 11, cis-Cyclobutane-1,1-dicarboxylato-1-ethyl-1,4-butanediamine platinum] | 4.70 | 139 | 64 | – | > 3000 | –
CC1(C)CC[NH2+][Pt-2]([Cl])([Cl])[NH2+]C1 [Compound No. 19, cis-Dichloro-2,2-dimethyl-1,4-butanediamine platinum] | 0.20 | 359 | 4 | 6.0 | – | > 2
CCC(CN)CCN.O=C([O-])C1(C(=O)[O-])CCC1.[Pt+2] [Compound No. 32, cis-Cyclobutane-1,1-dicarboxylato-2-ethyl-1,4-butanediamine platinum] | 0.67 | 275 | 32 | – | – | –
CC(C)(C(=O)[O-])C(=O)[O-].CC(C)(N)CCCN.[Pt+2] [Compound No. 28, cis-Dimethylmalonato-1,1-dimethyl-1,4-butanediamine platinum] | 4.50 | – | – | – | – | –
CC1CCC[NH2+][Pt-2]([Cl])([Cl])[NH2+]1 (racemic) [Compound No. 4] | 0.20 | 225 | 2 | 2.4 | – | > 2
CCC(CN)CCN.O=C([O-])CC(=O)[O-].[Pt+2] (stereo not drawn) [Compound No. 31, cis-Malonato-2-ethyl-1,4-butanediamine platinum] | 0.66 | – | – | – | – | –
CC(N)CCCN.O=C([O-])C(=O)[O-].[Pt+2] (stereo not drawn) [Compound No. 5, cis-Oxalato-1-methyl-1,4-butanediamine platinum] | 0.29 | 273 | 4 | – | – | –
CC1(C)CCC[NH2+][Pt-2]2([NH2+]1)[O]C(=O)C(=O)[O]2 [Compound No. 26, cis-Oxalato-1,1-dimethyl-1,4-butanediamine platinum] | 0.30 | – | – | – | – | –
